# Experiments:
# [1] = system: murine brachial plexus and sciatic nerves; assay: Nerve-specificity screening using direct/topical administration; assay type: in vivo, mouse; conditions: for nerve specificity (N/M contrast vs control group) via direct administration: 125 μM, imaged 30 minutes after staining; for N/M and N/A ratios vs unstained control animals: direct administration
# Protocol: All reagents were purchased from Sigma Aldrich, Fisher Scientific, TCI, or Ark Pharm. Unless otherwise indicated, all commercially available starting materials were used directly without further purification. Analytical thin layer chromatography (TLC) was performed on Millipore ready-to-use plates with silica gel 60 (F254, 32-63 μm). Flash chromatography was performed on Sorbent Technologies silica gel for column chromatography or on a Biotage Isolera Flash System using SNAP Ultra cartridges. High-resolution mass spectra (HRMS) were measured on a ThermoElectron LTQ-Orbitrap high resolution mass spectrometer with a dedicated Accela HPLC system, or an Agilent 6244 time-of-flight LCMS with diode array detector VL+. LCMS and Purity Characterization Mass-to-charge ratio and purity of the Oxazine compounds were characterized on an Agilent 6244 time-of-flight tandem liquid chromatography mass spectroscopy (LCMS) with diode array detector VL+. Sample (10 μL) was injected into a C18 column (Poroshell 120, 4.6×50 mm, 2.7 micron), and eluted with a solvent system of A (H2O, 0.1% FA) and B (MeCN, 01.% FA) at 0.4 mL/min, from A/B=90/10 to 5/95 over 10 min, maintained at A/B=5/95 for additional 5 min. Ions were detected in positive ion mode by setting the capillary voltage at 4 kV and gas temperature at 350° C. Purity was calculated through area under the curve analysis of the absorbance at 254 nm. UV-Vis Absorption and Fluorescence Spectroscopy. UV-Vis spectra were collected with a Cary 50 UV-Vis spectrophotometer at room temperature, using a 1-cm quartz cuvette. Fluorescence spectra were collected on a Cary Eclipse fluorescence spectrophotometer (Agilent Technologies). All absorbance spectra were reference corrected. Extinction coefficient was calculated from Beer's Law plots of absorbance versus concentration. Fluorescence spectra were corrected for the wavelength dependent response of the R928 photomultiplier tube using a manufacturer generated correction file. Relative quantum yields are reported as the average of multiple measurements using multiple references, including Oxazine 1, Oxazine 170, and Rhodamine 101. Physicochemical Property Calculation. Physicochemical partition coefficients (Log D) values at pH 7.4, number of hydrogen bond donors and acceptors, polar surface area, and the number of rotatable bonds were calculated using Marvin and JChem calculator plugins (ChemAxon, Budapest, Hungary). Nerve-Specificity Screening using Direct/Topical Administration Each compound was screened for its tissue-specificity using a previously published direct/topical administration strategy in murine brachial plexus and sciatic nerves.^1 Each compound from the Oxazine library was formulated in the previously utilized co-solvent formulation (10% DMSO, 5% Kolliphor, 65% serum and 20% phosphate buffered saline) at 125 μM. 100 μL of the formulated Oxazine were incubated on the exposed brachial plexus or sciatic nerve for 5 minutes. The fluorophore containing solution was removed and the area was irrigated with saline 18 times to remove any unbound fluorophore. Co-registered fluorescence and color images were collected of each stained area 30 minutes after Oxazine direct/topical administration using a custom built macroscopic imaging system with 620/60 nm excitation and 700/75 nm bandpass emission filters. Custom written MatLab code was used to analyze the tissue specific fluorescence where regions of interest were selected on the nerve, muscle and adipose tissue using the white light images. These regions of interest were then analyzed on the co-registered matched fluorescence images permitting assessment of the nerve to muscle and nerve to adipose ratios in blinded manner. […]
# [2] = UV-Vis absorption and fluorescence spectroscopy of the Oxazine library; assay type: physicochemical; conditions: for Extinction coefficient: Beer's Law plots; for Quantum yield: relative, references Oxazine 1, Oxazine 170, Rhodamine 101
# In short: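 Absorbance measured at room temperature in 1-cm quartz cuvette, reference corrected; extinction coefficient from Beer's Law plots of absorbance vs concentration. Fluorescence spectra corrected for PMT response; relative quantum yields averaged over multiple measurements against Oxazine 1, Oxazine 170 and Rhodamine 101 references.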
# [3] = system: murine brachial plexus and sciatic nerves; assay: Nerve-specificity screening using systemic administration; assay type: in vivo; conditions: for nerve specificity / nerve contrast (N/M vs control group) following systemic administration: IV, 200 nmol, 4 hours prior to imaging; for N/M and N/A ratios vs unstained control animals: systemic administration
SMILES,nerve specificity (N/M contrast vs control group) via direct administration [1],Max Abs [2],Max Em [2],Max Ex [2],Extinction coefficient [2],Quantum yield [2],nerve specificity / nerve contrast (N/M vs control group) following systemic administration [3],N/M and N/A ratios vs unstained control animals [1],N/M and N/A ratios vs unstained control animals [3]
"CC[N+](CC)=c1ccc2nc3cc4c(cc3oc-2c1)NCCO4 [LGW03-37, N-(3,4-dihydro-[1,4]oxazino[2,3-b]phenoxazin-8(2H)-ylidene)-N-ethylethanaminium]",positive nerve specificity,646 nm,670 nm,650 nm,48849 M⁻¹ cm⁻¹,4.34%,negative for nerve contrast,,
"CC/N=c1/cc2oc3cc4c(cc3nc-2cc1C)C(C)=CC(C)(C)N4CC [LGW03-57, (Z)—N-(1-ethyl-2,2,4,8-tetramethyl-1,2-dihydro-9H-pyrido[3,2-b]phenoxazin-9-ylidene)ethanaminium]",positive nerve specificity,661 nm,680 nm,665 nm,54072 M⁻¹ cm⁻¹,18.17%,negative for nerve contrast,,
"CC[N+](CC)=c1ccc2nc3ccc(N(C)C)cc3oc-2c1 [LGW03-76, N-(7-(dimethylamino)-3H-phenoxazin-3-ylidene)-N-ethylethanaminium]",high nerve specificity,654 nm,669 nm,655 nm,66111 M⁻¹ cm⁻¹,7.99%,high nerve specificity,significantly higher N/M and N/A ratios than unstained control animals,significantly higher N/M and N/A ratios than unstained control animals
"CCCNc1cc2oc3cc(=[N+](CC)CC)ccc-3nc2cc1C [LGW04-31, N-ethyl-N-(8-methyl-7-(propylamino)-3H-phenoxazin-3-ylidene)ethanaminium]",high nerve specificity,641 nm,661 nm,640 nm,59586 M⁻¹ cm⁻¹,5.01%,high nerve specificity,significantly higher N/M and N/A ratios than unstained control animals,significantly higher N/M and N/A ratios than unstained control animals
"CCN1CCc2cc3nc4ccc(=[N+](CC)CC)cc-4oc3cc21 [LGW05-84, N-ethyl-N-(1-ethyl-2,3-dihydropyrrolo[3,2-b]phenoxazin-8(1H)-ylidene)ethanaminium]",negative nerve specificity,643 nm,675 nm,650 nm,46048 M⁻¹ cm⁻¹,4.85%,positive,,
"CC/N=c1/cc2oc3cc4c(cc3nc-2cc1C)CCN4 [LGW05-85, (Z)—N-(7-methyl-2,3-dihydropyrrolo[3,2-b]phenoxazin-8(1H)-ylidene)ethanaminium]",positive nerve specificity,613 nm,640 nm,615 nm,45382 M⁻¹ cm⁻¹,41.05%,negative for nerve contrast,,
"CC/N=c1/cc2oc3cc(NCC)c(F)cc3nc-2cc1F [LGW05-91, (Z)—N-(7-(ethylamino)-2,8-difluoro-3H-phenoxazin-3-ylidene)ethanaminium]",positive nerve specificity,606 nm,626 nm,610 nm,16763 M⁻¹ cm⁻¹,33.45%,negative for nerve contrast,,
"CC/N=c1/cc2oc3cc(N)c(C)cc3nc-2cc1C [LGW06-10, (Z)—N-(7-amino-2,8-dimethyl-3H-phenoxazin-3-ylidene)ethanaminium]",positive nerve specificity,602 nm,621 nm,605 nm,55807 M⁻¹ cm⁻¹,26.54%,negative for nerve contrast,,
"CC[N+](CC)=c1ccc2nc3cc(C)c(N)cc3oc-2c1 [LGW06-11, N-(7-amino-8-methyl-3H-phenoxazin-3-ylidene)-N-ethylethanaminium]",positive nerve specificity,628 nm,650 nm,625 nm,31843 M⁻¹ cm⁻¹,2.52%,negative for nerve contrast,,
"CC/N=c1/cc2oc3cc(N)ccc3nc-2cc1C [LGW06-97, (Z)—N-(7-amino-2-methyl-3H-phenoxazin-3-ylidene)ethanaminium]",positive nerve specificity,599 nm,617 nm,600 nm,38616 M⁻¹ cm⁻¹,25.39%,negative for nerve contrast,,
"c1c2c(cc3c1N=c1cc4c(cc1O3)=NCC4)NCC2 [LGW07-55, 2,3,7,8-tetrahydro-1H-dipyrrolo[3,2-b:2′,3′-i]phenoxazin-9-ium]",positive nerve specificity,619 nm,634 nm,620 nm,20163 M⁻¹ cm⁻¹,28.25%,negative for nerve contrast,,
